Assay results published in patent US20230390297A1, “USE OF NUCLEOTIDE SYNTHESIS INHIBITORS FOR TARGETED THERAPY IN MLL3/4 COMPASS MUTANT CANCER” (priority 2022, published 2023).

How the values were obtained:
WT and Mll3/4 KO mESCs = assay: RNA-seq of WT and Mll3/4 KO mESCs treated with LTX -/+ HPX; assay type: cell-based, mouse; conditions: 48 hours
Description: FIG. 3. […] (A) WT and Mll3/4 KO cells were treated with 0-2.5 μM lometrexol (LTX)−/+50 hypoxanthine (HPX) for 48 hours. CellTiter-Glo® luminescent cell viability assay was performed to determine the percentage of inhibition under these conditions. (B) WT and KO cells were treated with 0.3 μM LTX−/+50 μM HPX for 48 hours, and cells were harvested for RNA-seq. Differential gene expression analyses were performed with indicated comparisons. (C) Principal component analysis of RNA-seq in (B). (D) Hierarchical clustering heatmap showing differentially expressed genes in KO cells in comparison with WT cells.
FIG. 10. Mll3/4 KO mESCs are more sensitive to purine synthesis inhibition. (A-B) WT and Mll3/4 KO cells were treated with 0-2.5 μM lometrexol (LTX) (A) or 0-5 methotrexate (MTX) (B) for 48 hours. CellTiter-Glo® luminescent cell viability assay was performed to determine the percentage of inhibition under these conditions with three different Mll3/4 KO clones included. (C) WT and Mll3/4 KO cells were treated with 0-40 μM SHIINI for 48 hours. MTT cell viability assay was performed to determine the percentage of inhibition under these conditions with three different Mll3/4 KO clones included.
Gene count tables were constructed using HTseq (56) with Ensembl gene annotations and used as input for edgeR 3.0.8 (57). Genes with Benjamini-Hochburg adjusted p-values less than were differentially expressed. Batch effects were removed using ComB at-seq on the raw read counts (58). Pathway analysis was performed with Metascape (59).

[1] = tested on: HCT116 sc xenografts (MLL4 mutant); assay: HCT116 subcutaneous xenograft in nude mice; assay type: in vivo
Description: FIG. 6. Inhibition of de novo purine synthesis by lometrexol inhibits MLL4 mutant tumor growth. Tumor development after inoculation of 4×10^6 of HCT116 cells into the nude mice. Mice with HCT116 subcutaneous (sc) tumor were either treated with vehicle (DMSO, n=9) or LTX (25 mg/kg, n=9) daily for 7 days. (A) Growth plots for sc tumors in each treatment group were shown. Tumor volumes (mm3) show mean and upper SD. (B) Dot plot representation of sc tumor volume in mice at day 12 post-tumor cell injection. Unpaired t-test values for comparisons between DMSO and LTX treatment: ****, P<0.0001. (C) Photographs of nude mice (left) and sc tumor taken from these mice (right) in which HCT116 cells were inoculated into the right flank. (D) Animal survival at the indicated days after inoculation. Log-rank test was used for comparisons between DMSO and LTX treatment: ****, P<0.0001. (E) H&E staining and immunohistochemistry showing the proliferation and apoptosis in tumors with Ki-67 and TUNEL staining. The signals for Ki-67 and TUNEL are quantified and shown in the bar plots on the right.
FIG. 20. Lometrexol application in MLL4 mutant tumors in the xenograft mouse models. (A-D) Tumor development after inoculation of 4×10^6 of HT55 cells into the nude mice. Mice with HT55 subcutaneous (sc) tumor were either treated with vehicle (DMSO, n=9) or LTX (15 mg/kg, n=9) daily for 7 days. (A) Growth plots for sc tumors in each treatment group were shown. Tumor volumes (mm3) show mean and upper SD. (B) Dot plot representation of sc tumor volume in mice at day 18 post-tumor cell injection. […] (C) Photographs of nude mice (upper) and sc tumor taken from these mice (lower) in which HT55 cells were inoculated into the right flank. (D) Animal survival at the indicated days after inoculation. Log-rank test was used for comparisons between DMSO and LTX treatment. (E-H) Tumor development after inoculation of 4×10^6 of HCT116 cells into the nude mice. Mice with HCT116 subcutaneous (sc) tumor were either treated with vehicle (DMSO, n=9) or LTX (15 mg/kg, n=9) daily for 7 days. (E) Growth plots for sc tumors in each treatment group were shown. Tumor volumes (mm3) show mean and upper SD. (F) Dot plot representation of sc tumor volume in mice at day 12 post-tumor cell injection. Unpaired t-test values for comparisons between DMSO and LTX treatment: ***, P<0.001. (G) Photographs of nude mice (upper) and sc tumor taken from these mice (lower) in which HCT116 cells were inoculated into the right flank. (H) Animal survival at the indicated days after inoculation. Log-rank test was used for comparisons between DMSO and LTX treatment: ***, P<0.001.
Six-week-old female athymic mice (nu/nu genotype, BALB/c background) were purchased from Envigo (Indianapolis, IN, USA) and housed under aseptic conditions. HT55 or HCT116 cells were implanted into the flank of athymic mice as previously described (65). Briefly, 4×10^6 cells, in 0.4 ml of cell culture media with matrigel (BD Bioscience) at 1:1 ratio, were injected in the right flank of mice under anesthetization by isoflurane. […] The tumor sizes were measured on alternate days and the mice were euthanized when the tumor size reached 1000 mm^3. […]
For in vivo study, the Kaplan-Meier estimator and Prism software were used to generate and analyze survival plots. Differences between survival plots were calculated using a log-rank test. […]

[2] = LTX 25 mg/kg daily for 7 days vs DMSO

## Nc1nc2c(c(=O)[nH]1)C[C@@H](CCc1ccc(C(=O)N[C@@H](CCC(=O)O)C(=O)O)cc1)CN2 [lometrexol, (2S)-2-[[4-[2-[(6R)-2-amino-4-oxo-5,6,7,8-tetrahydro-3H-pyrido[2,3-d]pyrimidin-6-yl]ethyl]benzoyl]amino]pentanedioic acid]
WT and Mll3/4 KO mESCs; 0.3 μM LTX or 50 μM HPX alone, LTX effect almost completely rescued by HPX
  gene expression change in WT and Mll3/4 KO cells: induced significant gene expression change
WT and Mll3/4 KO mESCs; 0.3 μM LTX
  genes commonly downregulated in WT and KO cells: 1063 genes
  genes commonly upregulated in WT and KO cells: 1195 genes
[1]; LTX 15 mg/kg daily for 7 days vs DMSO, tumor volume day 12 P<0.001, survival P<0.001
  tumor growth at lower dose: maintained the sensitivity to LTX at a lower dose
[1]; [2]
  apoptosis in tumors (TUNEL): enhanced apoptosis
  cell proliferation in tumors (Ki-67): significantly decreased
[1]; LTX 25 mg/kg intraperitoneally daily for 7 days vs DMSO, P<0.0001
  subcutaneous tumor growth (tumor volume): significantly inhibited the subcutaneous (sc) tumor growth
[1]; LTX 25 mg/kg intraperitoneally daily for 7 days vs DMSO, log-rank P<0.0001
  survival of recipient mice: extend the survival of recipient mice
